# Results published in patent publication US11712436B2, “Theranostic test for antifungal treatment of inflammatory diseases” (Cornell University, priority 2017, dated 2023).
# Tests used:
# [1] = tested on: most Candida species and other dimorphic fungi; conditions: when used during the onset of intestinal disease; cited from earlier work
# intestinal fungi = assay: DSS colitis in ΔCX3CR1 mice with fungal targeting by fluconazole; type: in vivo; conditions: 3% DSS in drinking water, fluconazole 0.5 mg/ml in drinking water starting 4 days prior the first DSS dose, FIG. 3E-G
# Protocol: Cx3cr1^GFP/GFP, C57BL/6J, Cd11c-cre^+/+, Irf4^fl/fl, Cx3cr1^tm3(DTR)Litt/J (Cx3cr1^DTR), Syk^fl/fl, Cx3cr1^tm2.1(cre/ERT2)Jung/J (Cx3cr1-cre/ERT2^+/+), Batf3^−/−, Thy1.1, and OVA-specific CD4^+ (OT-II) T-cell receptor-transgenic (H-2^b) mice were purchased from the Jackson Laboratories (Bar Harbor, Me.). […]. For depletion, mice generated through such breeding (Cd11c-cre^+/− Cx3cr1^DTR mice) and the respective littermate controls (Cd11c-cre^−/− Cx3cr1^DTR) were injected for three consecutive days with 100 ng of DT i.p followed by maintenance injection every other day for the length of the experiments. Depleted mice were designated throughout the study as ΔCX3CR1 mice. Irf4^fl/fl mice were bred to hemizygous Cd11c-cre^+/− mice to allow for genetic ablation of CD11c^+ CD11b^+ CD103^+ dendritic cells (Cd11c-cre^+/− Irf4^fl/fl mice, designated throughout the study as ΔIrf4 mice) and the generation of littermate controls (Cd11c-cre^−/− Irf4^fl/fl mice). Syk^fl/fl mice were bred to Cx3cr1-cre/ERT2^+/+ to allow for the selective depletion of Syk in CX3CR1 expressing cells upon administration of tamoxifen. […]
# Cx3cr1^DTR or littermate control mice were injected with DT for three consecutive days, prior to the induction of colitis with 3% (w/v) Dextran sulfate sodium (DSS, MP Biomedicals, LLC, Aurora, Ohio) in the drinking water. […] Body weight and the presence of occult blood were assessed daily. […]
smiles,measurement,setting,value
OC(Cn1cncn1)(Cn1cncn1)c1ccc(F)cc1F [fluconazole],colitis in mice with defects in antifungal immunity,[1],ameliorates colitis
same,"intestinal disease (DSS colitis: body weight change, neutrophil infiltration in colonic LP, H&E histology)",intestinal fungi,significantly ameliorated intestinal disease
